A short description of data set [1]: The drug is tested on Ruminococcus torques strain: ATCC27756 for biotransformation. The drug concentrations were measured before and after a 12-h incubation by liquid-chromatography-coupled mass spectrometry (LC–MS). The arrangement: dose 2 uM, timepoint 0 vs 12 hours. The note with it: 2 µM. Format: ADME.
The conditions of data set [2]: parabacteroides johnsonii, 12 h, 2 µM.
Description: The drug is tested on Parabacteroides johnsonii strain: DSM18315 for biotransformation. The drug concentrations were measured before and after a 12-h incubation by liquid-chromatography-coupled mass spectrometry (LC–MS)
A short description of data set [3]: The drug is tested on Bacteroides coprophilus strain: DSM18228 for biotransformation. The drug concentrations were measured before and after a 12-h incubation by liquid-chromatography-coupled mass spectrometry (LC–MS). The note with it: 2 µM.
Data set [4] in a line: The drug is tested on Bacteroides xylanisolvens strain: DSM18836 for biotransformation. The drug concentrations were measured before and after a 12-h incubation by liquid-chromatography-coupled mass spectrometry (LC–MS). The note with it: 2 µM.
Data set [5] is described as follows: The drug is tested on Escherichia coli strain: BW25113 for biotransformation. The drug concentrations were measured before and after a 12-h incubation by liquid-chromatography-coupled mass spectrometry (LC–MS). The note with it: 2 µM.
Data set [6] is described as follows: The drug is tested on Bifidobacterium longum subsp. Infantis strain: CCUG52486 for biotransformation. The drug concentrations were measured before and after a 12-h incubation by liquid-chromatography-coupled mass spectrometry (LC–MS). As to conditions: 2 µM.
Data set [7] can be described thus: The drug is tested on Clostridium ramosum strain: DSM1402 for biotransformation. The drug concentrations were measured before and after a 12-h incubation by liquid-chromatography-coupled mass spectrometry (LC–MS). As to conditions: thomasclavelia ramosa, 2 µM.
For data set [8] the following is noted: bifidobacterium adolescentis, 12 h, 2 µM.
Description: The drug is tested on Bifidobacterium adolescentis strain: ATCC 15703 for biotransformation. The drug concentrations were measured before and after a 12-h incubation by liquid-chromatography-coupled mass spectrometry (LC–MS)
Data set [9] can be described thus: The drug is tested on Providencia stuartii strain: ATCC25827 for biotransformation. The drug concentrations were measured before and after a 12-h incubation by liquid-chromatography-coupled mass spectrometry (LC–MS). As to conditions: 2 µM.
For data set [10] the following is noted: enterocloster bolteae, 12 h, 2 µM.
Description: The drug is tested on Clostridium bolteae strain: ATCCBAA-613 for biotransformation. The drug concentrations were measured before and after a 12-h incubation by liquid-chromatography-coupled mass spectrometry (LC–MS)
A short description of data set [11]: The drug is tested on Eubacterium rectale strain: ATCC33656 for biotransformation. The drug concentrations were measured before and after a 12-h incubation by liquid-chromatography-coupled mass spectrometry (LC–MS). The note with it: agathobacter rectalis, 2 µM.
The nature of data set [12]: The drug is tested on Bacteroides fragilis strain: HMW615 for biotransformation. The drug concentrations were measured before and after a 12-h incubation by liquid-chromatography-coupled mass spectrometry (LC–MS). As to conditions: 2 µM.
Data set [13] is described as follows: The drug is tested on Enterococcus faecalis strain: V583 for biotransformation. The drug concentrations were measured before and after a 12-h incubation by liquid-chromatography-coupled mass spectrometry (LC–MS). As to conditions: 2 µM.
Data set [14] is described as follows: The drug is tested on Bacteroides sp. WH2 strain: WH2 for biotransformation. The drug concentrations were measured before and after a 12-h incubation by liquid-chromatography-coupled mass spectrometry (LC–MS). As to conditions: bacteroides sp. wh2, 12 h, 2 µM.
Data set [15] can be described thus: The drug is tested on Eubacterium ventriosum strain: ATCC27560 for biotransformation. The drug concentrations were measured before and after a 12-h incubation by liquid-chromatography-coupled mass spectrometry (LC–MS). As to conditions: 2 µM. It is filed as ADME. Also noted: dose 2 uM, timepoint 0 vs 12 hours.
Data set [16] is described as follows: The drug is tested on Bifidobacterium breve strain: DSM20213 for biotransformation. The drug concentrations were measured before and after a 12-h incubation by liquid-chromatography-coupled mass spectrometry (LC–MS). As to conditions: 2 µM.
Data set [17] can be described thus: The drug is tested on Collinsella aerofaciens strain: ATCC25986 for biotransformation. The drug concentrations were measured before and after a 12-h incubation by liquid-chromatography-coupled mass spectrometry (LC–MS). The note with it: 2 µM.
Data set [18] can be described thus: The drug is tested on Bacteroides ovatus strain: ATCC8483 for biotransformation. The drug concentrations were measured before and after a 12-h incubation by liquid-chromatography-coupled mass spectrometry (LC–MS). As to conditions: 2 µM.
Data set [19] in a line: The drug is tested on Eubacterium hallii strain: DSM3353 for biotransformation. The drug concentrations were measured before and after a 12-h incubation by liquid-chromatography-coupled mass spectrometry (LC–MS). The note with it: anaerobutyricum hallii, 2 µM.
The conditions of data set [20]: victivallis vadensis, 12 h, 2 µM.
Description: The drug is tested on Victivallis vadensis strain: ATCC BAA-548 for biotransformation. The drug concentrations were measured before and after a 12-h incubation by liquid-chromatography-coupled mass spectrometry (LC–MS)

Each structure is given as a SMILES string.

As to `CCN1CCCC1CNC(=O)c1cc(S(=O)(=O)CC)c(N)cc1OC` (stereo not given) [AMISULPRIDE], the “Bacterial Biotransformation” value in data set [1], in [2], in data set [3], in data set [4], in [5] and in [6] was “Compound NOT metabolized” in each case. Besides, the “Bacterial Biotransformation” value in data set [7], in data set [8], in data set [9], in [10], in data set [11] and in data set [12] was “Compound NOT metabolized” each time. Also, the “Bacterial Biotransformation” value in [13], in data set [14], in data set [15], in [16], in data set [17] and in data set [18] was “Compound NOT metabolized” each time. For the same compound, in data set [19], the “Bacterial Biotransformation” value was “Compound NOT metabolized”.
Take `NS(=O)(=O)c1cc2c(cc1Cl)N=C(CSCc1ccccc1)NS2(=O)=O` [BENZTHIAZIDE]: the “Bacterial Biotransformation” value in data set [3], in data set [6], in data set [20], in data set [8], in [10] and in [12] was “Compound NOT metabolized” each time. The “Bacterial Biotransformation” value in [13], in data set [14], in data set [16], in data set [17], in data set [18] and in data set [19] was “Compound NOT metabolized” in each case.
As to `CC(C)(Oc1ccc(CCNC(=O)c2ccc(Cl)cc2)cc1)C(=O)O` [BEZAFIBRATE], the “Bacterial Biotransformation” value in [1] is listed as “Compound metabolized”; in [2], “Compound NOT metabolized”; in data set [3], “Compound metabolized”; in data set [4] it was “Compound metabolized”; in data set [5] it was “Compound metabolized”; in data set [6], “Compound metabolized”. Further, the “Bacterial Biotransformation” value was “Compound NOT metabolized” in [20]; “Compound metabolized” in data set [8]; “Compound metabolized” in data set [9]; “Compound metabolized” in data set [10]; “Compound NOT metabolized” in data set [11]; “Compound NOT metabolized” in [13]. The “Bacterial Biotransformation” value in data set [14], in data set [15], in [16], in data set [17], in data set [18] and in [19] was “Compound metabolized” in each case.
`Clc1cccc(Cl)c1N=C1NCCN1` [CLONIDINE]: the “Bacterial Biotransformation” value is reported as “Compound NOT metabolized” in data set [1]; “Compound NOT metabolized” in data set [2]; “Compound metabolized” in [3]; “Compound NOT metabolized” in data set [4]; “Compound NOT metabolized” in [5]; “Compound NOT metabolized” in [6]. Further, the “Bacterial Biotransformation” value in data set [7] is recorded as “Compound NOT metabolized”; in data set [8] it was “Compound NOT metabolized”; in data set [9], “Compound NOT metabolized”; in data set [10], “Compound NOT metabolized”; in data set [11], “Compound NOT metabolized”; in [12], “Compound metabolized”. The “Bacterial Biotransformation” value in data set [13] is “Compound NOT metabolized”; in data set [14] it was “Compound NOT metabolized”; in data set [15], “Compound NOT metabolized”; in [16], “Compound NOT metabolized”; in [17], “Compound NOT metabolized”; in data set [18] it was “Compound metabolized”. Further, the “Bacterial Biotransformation” value in data set [19] is “Compound NOT metabolized”.
Turning to `CNCCC(Oc1ccc(C(F)(F)F)cc1)c1ccccc1` (stereo not given) [FLUOXETINE], the “Bacterial Biotransformation” value in data set [1] is listed as “Compound NOT metabolized”; in data set [2], “Compound metabolized”; in [3], “Compound metabolized”; in data set [4], “Compound metabolized”; in data set [5], “Compound metabolized”; in [6], “Compound metabolized”. The “Bacterial Biotransformation” value in [7], in data set [8], in data set [9], in data set [10], in [11] and in data set [12] was “Compound metabolized” throughout. The “Bacterial Biotransformation” value in [13], in [14], in [15], in [16], in data set [17] and in [18] was “Compound metabolized” in each case. The “Bacterial Biotransformation” value in data set [19] is on record as “Compound metabolized”.
For the compound `CCCc1nc(C(C)(C)O)c(C(=O)OCc2oc(=O)oc2C)n1Cc1ccc(-c2ccccc2-c2nnn[nH]2)cc1` [OLMESARTAN MEDOXOMIL], the “Bacterial Biotransformation” value in data set [2], in [3], in [4], in data set [5], in data set [6] and in [20] was “Compound metabolized” each time. In addition, the “Bacterial Biotransformation” value in data set [8] is reported as “Compound NOT metabolized”; in [9], “Compound metabolized”; in data set [10], “Compound metabolized”; in data set [11], “Compound metabolized”; in [15], “Compound metabolized”; in data set [16], “Compound metabolized”. The “Bacterial Biotransformation” value in [17], in data set [18] and in [19] was “Compound metabolized” each time.
With `CCOc1cc(CC(=O)N[C@@H](CC(C)C)c2ccccc2N2CCCCC2)ccc1C(=O)O` [REPAGLINIDE], the “Bacterial Biotransformation” value is recorded as “Compound NOT metabolized” in data set [1]; “Compound metabolized” in data set [2]; “Compound metabolized” in data set [3]; “Compound metabolized” in data set [4]; “Compound NOT metabolized” in [6]; “Compound NOT metabolized” in data set [20]. The “Bacterial Biotransformation” value is “Compound NOT metabolized” in [8]; “Compound NOT metabolized” in [9]; “Compound metabolized” in data set [10]; “Compound NOT metabolized” in data set [11]; “Compound metabolized” in data set [12]; “Compound NOT metabolized” in data set [13]. The “Bacterial Biotransformation” value in data set [14] was “Compound NOT metabolized”; in data set [15], “Compound NOT metabolized”; in data set [16], “Compound metabolized”; in data set [17], “Compound metabolized”; in data set [18], “Compound NOT metabolized”; in data set [19] it was “Compound metabolized”.
